# Literature values in patent publication US11278511B2, “Sports health performance composition” (REV Pharmaceuticals, Inc., priority 2016, dated 2022).
# Like-named read-outs stand apart in the source and are kept apart here.
# Columns and labels:
# [1] = system: urinary cGMP and nitrate excretion
# [2] = IV infusion or oral, doses 6 to 30 gm, humans
structure (smiles),measurement,setting,value
N=C(N)NCCC[C@H](N)C(=O)O [L-arginine],Cmax,6 gm IV,822 µM
same,Cmax,6 gm oral,310 µM
same,Cmax,30 gm IV,6220 µM
same,Half life,IV,1 h
same,Half life,PO,1.5 h
same,urinary cGMP excretion,[1]; 6 gm IV,significant increases
same,urinary nitrate excretion,[1]; 6 gm IV,significant increases
same,urinary cGMP excretion,[1]; 30 gm IV,significant increases
same,urinary nitrate excretion,[1]; 30 gm IV,significant increases
same,changes in hemodynamics,humans; 6 gm doses,No significant changes
same,blood pressure,humans; 30 gm IV,significantly decreased
same,total peripheral resistance,humans; 30 gm IV,significantly decreased
same,endothelium-dependent vasodilation,humans; [2],improved endothelium-dependent vasodilation
same,muscle blood flow,humans; [2],improved muscle blood flow
same,peripheral vasodilation,humans; [2],induced peripheral vasodilation
